The results in this text go back to article PMC8062851, “2-Methoxyestradiol and its derivatives inhibit store-operated Ca^2+ entry in T cells: Identification of a new and potent inhibitor” (Biochimica et Biophysica Acta. Molecular Cell Research, 2021).

The test system of one assay is SOCE in Jurkat T cells. Description: Inhibition during activated SOCE (thapsigargin or anti-CD3 OKT3, 1 mM extracellular Ca2+) in Jurkat T cells. It counts as cell-based, human. Conditions: Homo sapiens, Jurkat, Jurkat T cells stimulated by 1 μM thapsigargin (TG); 1 mM extracellular Ca2+; read-out: IC50 of SOCE inhibition during active SOCE. The procedure:
(§1) Jurkat T-lymphocytes, primary human CD4^+ T cells and H1299 cells were pelleted at 450 ×g for 5 min, rat TMBP at 300 ×g for 8 min at room temperature and were resuspended in 1 ml of either standard JMP medium (Jurkat, H1299 and human CD4^+ T cells) or standard DMEM based medium containing 10% fetal bovine serum (FBS) (v/v) (TMBP cells). Resting TMBP cells (day 5–7 after re-stimulation) after the second to fifth re-stimulation were thawed from liquid nitrogen 12 to 40 h prior to Fura2-loading. After pre-incubation for 5 min at 37 °C, cells were incubated with 4 μM Fura2-AM for 15 min at 37 °C. After addition of the dye, cells were kept in the dark. Afterwards, cells and the dye were diluted by addition of 4 ml standard medium and incubated for another 15 min. Cells were washed twice in Ca^2+ buffer (140 mM NaCl, 5 mM KCl, 1 mM MgSO4, 1 mM CaCl2, 1 mM NaH2PO4, 20 mM HEPES, 5.5 mM glucose; pH 7.4 (NaOH), sterile filtered) and were diluted to a concentration of 2*10^6 cells/ml. Subsequently, cells were kept at room temperature for 20 min for de-esterification before the start of the first measurement.
10^6 Jurkat T-lymphocytes, H1299 cells, TMBP cells or 4*10^6 primary human CD4^+ T cells were added into a 10 × 10 mm quartz glass cuvette (Hellma Analytics, Germany) that was placed into a fluorescence spectrophotometer (F-2710, Hitachi, Japan). In experiments using a Ca^2+ free/Ca^2+ re-addition protocol, cells were pelleted as described for Fura2 loading and Ca^2+ buffer was exchanged by 1 ml nominal Ca^2+ free buffer (140 mM NaCl, 5 mM KCl, 1 mM MgSO4, 1 mM NaH2PO4, 20 mM HEPES, 5.5 mM glucose; pH 7.4 (NaOH), sterile filtered) immediately before starting the measurement. The measurement was controlled by FL Solutions (Version 4.1, Hitachi High-Technologies Corporation). Fura2 was alternatively excited every 2 s at 340 ± 5 nm and 380 ± 5 nm, each 400 ms apart. Fluorescence intensity was measured at an emission wavelength of 495 ± 5 nm for both excitation wavelengths.
Finally, every measurement was calibrated using 0.1% (v/v) Triton X-100 to obtain a maximal ratio and 4 mM EGTA and 30 mM Tris to obtain a minimal ratio. […]
Besides the Ca^2+ free/Ca^2+ re-addition protocol, we also characterized the effect of STX564 in cells during activated SOCE in the presence of thapsigargin (TG, Fig. 2A,B) or upon stimulation via their TCR/CD3 complex (Fig. 2C). […]. […] Similarly, in Fig. 2C this effect of a partial or full recovery of SOCE was also observed, a few minutes after STX564 addition.

Assay [1] relates to SOCE in human Jurkat T cells. The assay is described as follows: cells. It is filed as cell-based. The following applies: Jurkat T cells. The procedure:
as §1
In experiments using a Ca^2+ free/Ca^2+ re-addition protocol, cells were pelleted as described for Fura2 loading and Ca^2+ buffer was exchanged by 1 ml nominal Ca^2+ free buffer (140 mM NaCl, 5 mM KCl, 1 mM MgSO4, 1 mM NaH2PO4, 20 mM HEPES, 5.5 mM glucose; pH 7.4 (NaOH), sterile filtered) immediately before starting the measurement. The measurement was controlled by FL Solutions (Version 4.1, Hitachi High-Technologies Corporation). Fura2 was alternatively excited every 2 s at 340 ± 5 nm and 380 ± 5 nm, each 400 ms apart.
Finally, every measurement was calibrated using 0.1% (v/v) Triton X-100 to obtain a maximal ratio and 4 mM EGTA and 30 mM Tris to obtain a minimal ratio.
R is the ratio between F340 and F380. Rmin and Rmax are the minimal and maximal ratio, respectively, obtained by calibration. F380 min and F380 max are the minimal and maximal fluorescence intensity at 380 nm EX during the calibration. Finally, artefacts due to compound additions that usually could easily be identified and lasted about 8 s were deleted from the tracings using FL Solutions (Version 4.1, Hitachi High-Technologies Corporation). The fluorescence intensities of deleted data points were interpolated from those just before and after the deleted time points.
Estradiol, 2ME2 and 2ME2 derivatives were dissolved in DMSO at a concentration of 50 mM and stored at −20 °C for up to 6 months. For concentration-response curves, stock solution was freshly diluted with DMSO to obtain the same DMSO concentration of 0.2% (v/v) for all conditions.
The compound concentrations were then log transformed. Finally, the data were fitted to a corresponding nonlinear fit of variable slope using Prism 6 (GraphPad Software, USA).

In assay [2] the test system is TMBP cells. The assay is described as follows: In vitro activation of TMBP cells by MBP, cytokine mRNA by qPCR. It counts as cell-based, rat. The following applies: TMBP cells + MBP; 6 h; qPCR. The procedure:
Myelin basic protein (MBP)-reactive CD4^+ T cells retrovirally transduced to express enhanced GFP (TMBP cells) were established as previously reported. In brief, 6–8 week old female Lewis rats were immunized subcutaneously with 150 μl of emulsion consisting of equal parts of MBP (stock concentration: 1 mg/ml) and complete Freund's adjuvant containing heat-inactivated Mycobacterium tuberculosis extract (Difco; stock concentration: 2 mg/ml). Draining lymph nodes were harvested and passed through a cell strainer (40 μm) 9–10 days after immunization. The cell suspension was co-cultured with GP + E86 packaging cell lines producing replication-deficient retroviruses in the presence of 10 μg/ml MBP. Murine IL-2 was added to the culture for T cell expansion from day 2–4 after stimulation. The cell lines underwent 3–4 cycles of stimulation before being used for in vitro and in vivo experiments. […] Upon stimulation, they produced interferon-γ and IL-17.
(§2) In vitro activation assays were performed in 96-well plates. […]. TMBP cell activation on mRNA level was determined using qPCR and on surface protein level using surface marker staining and subsequent flow cytometry analysis.
(§3) Total RNA was isolated using the standard TRIzol method. cDNA was synthesized using the RevertAid First Strand cDNA Synthesis Kit (Thermo Fisher Scientific). Quantitative PCR (qPCR) was performed using the StepOnePlus™ Real-Time PCR System (Applied Biosystems), as previously described [[23], [24], [25]]. Rat TMBP cell data were obtained from three to four independent duplicate measurements. β-actin served as housekeeping gene. Human PBMC data were obtained from two independent healthy donors and duplicate measurements (representative data of one donor are shown). HPRT served as housekeeping gene. For all probes (TaqMan), a combination of 5′-FAM and 3′-TAMRA quencher was used as described.
Background: Real-time PCR tracks product formation cycle by cycle.

In assay [3] the test system is TMBP cells. Description: In vitro activation of TMBP cells by MBP, CD25 surface expression by flow cytometry. It is filed as cell-based, rat. On the procedure:
as §2
To assess in vitro T cell activation, surface staining for CD25 (OX39, Bio-Rad) was performed. APC-labelled goat anti-mouse antibody (Jackson ImmunoResearch) was used as secondary antibody. Mouse IgG1κ (MOPC 31C, Sigma-Aldrich) was used as control.
Cytofluorometric analysis was carried out with a CytoFLEX S (Beckman Coulter) operated by CytExpert software (Beckman Coulter). All procedures were performed at 4 °C. Data were analyzed by using FlowJo software (FlowJo, LLC).

The test system of the next assay is human PBMCs. Description: In vitro activation of human PBMCs by anti-CD3, interferon-γ mRNA by qPCR. It counts as cell-based. Conditions: human PBMC; anti-CD3 stimulation. The procedure: In vitro activation assays were performed in 96-well plates. Briefly, 10^5 PBMCs isolated from human peripheral blood by Ficoll gradient were added onto plates coated with anti-human CD3 monoclonal antibody (5 μg ml^−1 in PBS, clone OKT3, Biolegend). 2ME2 or STX564 dissolved in DMSO were added in varying concentrations (0.01, 0.1, 1, 10 μM). […]. PBMC activation on mRNA level was determined using qPCR on samples collected 24 h after CD3 stimulation.
as §3

Regarding `COc1cc2c(cc1O)CC[C@@H]1[C@@H]2CC[C@]2(C)[C@@H](O)CC[C@@H]12` [2ME2, 2-Methoxyestradiol], the IC50 with SOCE in Jurkat T cells worked out at 71 µM; in assay [1] (Homo sapiens, Jurkat, Ca2+ free/Ca2+ re-addition protocol, plateau 425-475 s after re-addition of 1 mM Ca2+, read-out: IC50 of SOCE inhibition), 20 µM. The “fold higher potency compared to estradiol in inhibiting Ca2+ entry” value in assay [1] (SOCE) worked out at 2.5 fold. Also, the “concentration at which TCR/CD3-evoked pro-inflammatory cytokine expression was significantly reduced” value in the assay on TMBP cells [2] is on record as “significantly higher concentrations”. For the same molecule, the “concentration at which up-regulation of CD25 was significantly reduced” value in the assay on TMBP cells [3] is on record as “much higher concentration”. In addition, the “fold higher concentration necessary compared to STX564 for antagonist effect on interferon-γ expression” value in the assay on human PBMCs is “approx. 10 fold”.

A word on the IC50: it is the concentration that gives 50% inhibition.
